Publication PMC12640663 (Chemmedchem, 2025)
Where two headings read alike, the source gives them in different places.

Experiments:
TCPTP = molecular target: T1, TCPTP (Homo sapiens, UniProt P17706); assay: T‐cell protein tyrosine phosphatase (TCPTP) activity assay (p‐NPP); assay type: biochemical; conditions: for TCPTP inhibition (in words): up to 100 μM
T1 sequence (P17706 1-415): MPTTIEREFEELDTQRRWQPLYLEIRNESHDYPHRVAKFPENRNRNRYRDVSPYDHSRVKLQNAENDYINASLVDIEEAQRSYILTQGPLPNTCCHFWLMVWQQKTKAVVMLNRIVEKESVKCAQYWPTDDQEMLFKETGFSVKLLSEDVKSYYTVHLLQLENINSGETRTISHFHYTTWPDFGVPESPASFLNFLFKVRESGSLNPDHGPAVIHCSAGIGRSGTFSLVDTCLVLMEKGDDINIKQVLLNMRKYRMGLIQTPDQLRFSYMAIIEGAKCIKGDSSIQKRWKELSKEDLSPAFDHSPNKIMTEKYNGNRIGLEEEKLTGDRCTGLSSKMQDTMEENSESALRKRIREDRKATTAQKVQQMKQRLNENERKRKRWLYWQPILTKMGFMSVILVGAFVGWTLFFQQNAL
Experimental: The effectiveness and safety of protein tyrosine phosphatase (PTP) inhibitors depend on their specificity. PTP1B and TCPTP serve different functions: PTP1B is involved in metabolism and cancer, while TCPTP regulates immune function. Inhibiting TCPTP could impact the immune response, whereas inhibiting PTP1B may benefit metabolic diseases without these side effects.^[ [20] ^, [34] ^, [35] ^] […] These compounds were assessed up to 100 μM (Table 1).
TCPTP enzyme reported by Mendoza et al. was used for this assay. […] Aliquots of 0–10 µL (triplicate) of the newly synthesized compounds, positive control, and solvent were taken. These were incubated with 85 µL of enzyme solution (Tris, 50 mM, pH 6.8, TCPTP) and 5 µL of substrate (p‐NPP, 10 mM) for 15 min at 37 °C.

hPTP1B1−322 = system: hPTP1B1−322; set-up: method as in PMID 37628991; conditions: previous research, cited from earlier work; for IC50: read-out: IC50 against hPTP1B1−322; for Ki: read-out: K i against hPTP1B1−322
hPTP1B1–400 [1] = molecular target: T2, hPTP1B1–400 (Homo sapiens, UniProt P18031); assay: Kinetic studies of PTP1B (hPTP1B1–400); conditions: for Inhibition type: hPTP1B1–400; for K m / V max: ± S.D, hPTP1B1–400 with inhibitor;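 as to all read-outs here: enzyme kinetics run across a range of substrate and inhibitor levels, control lacking inhibitor, triplicate runs, parameters derived by fitting Michaelis–Menten style equations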
T2 sequence (P18031 1-400): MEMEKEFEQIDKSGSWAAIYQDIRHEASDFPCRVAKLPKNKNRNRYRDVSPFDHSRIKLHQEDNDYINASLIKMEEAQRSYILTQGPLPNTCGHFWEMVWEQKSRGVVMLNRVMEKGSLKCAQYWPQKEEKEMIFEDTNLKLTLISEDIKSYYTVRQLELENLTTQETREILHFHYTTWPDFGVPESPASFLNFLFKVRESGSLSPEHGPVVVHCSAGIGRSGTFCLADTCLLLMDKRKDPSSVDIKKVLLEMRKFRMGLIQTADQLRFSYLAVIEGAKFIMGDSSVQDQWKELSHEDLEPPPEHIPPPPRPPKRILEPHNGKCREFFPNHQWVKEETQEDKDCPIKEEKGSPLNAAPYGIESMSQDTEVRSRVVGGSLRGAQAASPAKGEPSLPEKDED
Experimental: Kinetic analyses were performed at various substrate and inhibitor concentrations.
The negative control was prepared with the enzyme and substrate in the absence of the inhibitor. Experiments were conducted in triplicate.^[ [30] ^] […] The kinetic parameters of enzyme inhibition, K m and V max, were determined by fitting the data to the Michaelis‐Menten model, Equation (3) (OriginPro 2018 (64‐bit) SR1). (3) y=VmaxX/Km+X´ where V max: is the maximum velocity, X: is the inhibitor concentration, K m: Michaelis constant.
(4) y=Vmax(X)/(Km/1+I/Ki)+X where V max: maximum velocity, X: substrate concentration, I: inhibitor concentration, K m: Michaelis constant, K i : inhibition constant.

[2] = system: insulin‐resistant HepG2 cells; assay: Insulin‐resistant HepG2 model, western blotting of PTP1B and pAKT; assay type: cell-based; conditions: 24 h, western blot
Experimental: Subsequently, we evaluated the same compounds in a HepG2 insulin‐resistant model.
Bar graphs represent the mean ± SEM of normalized values. The control levels were set at 1. T‐test significance *p < 0.05, when compared with control (DMSO). Statistical analyses were carried out using GraphPad Prism 8.0.
For the resistant insulin model using HepG2 cells, the following reagents were acquired from Sigma–Aldrich (Toluca, MEX, Mexico, and St. Louis, MO, USA): Insulin (I2643), Dulbecco's modified eagle's medium (DMEM) low glucose media (D5523), Trypsin‐EDTA solution (T4174), antibiotic‐antimycotic solution(A5955), dimethyl sulfoxide (DMSO‐D8418), sodium deoxycholate (D6750), triethylammonium bicarbonate buffer 1 M (TEAB‐T7408), glutaraldehyde 25% (G6275), acetic acid (695092), and crystal violet (C0775). The bicinchoninic acid protein quantitation kit (23225) and the Halt Cocktail with protease and phosphatase inhibitors (1861281) were acquired from ThermoFisherScientific. Fetal bovine serum (26140–079) was from Gibco. The chemiluminescent solution (170–5061) was acquired from Biorad. Rabbit anti‐PTP1B (5311S) and mouse anti‐β actin (3700S) primary antibodies were obtained from Cell Signaling, and secondary antibodies coupled with horseradish peroxidase were from Jackson laboratories (rabbit‐111−035, mouse‐115–035).
Treated cells with compounds were washed twice with 1 mL of PBS, and protein was extracted using 500 µL of a buffer solution containing 10% sodium deoxycholate in 10% TEAB, supplemented with a protease and phosphatase inhibitor cocktail. The extracts were heated to 80 °C for 5 min and disaggregated through passages with an insulin syringe. The cell extracts were centrifuged at 15,000 rpm for 15 min at 4 °C, and the supernatant was collected. Protein quantification was performed using the bicinchoninic acid assay method, and aliquots were prepared for western blotting. SDS/PAGE was conducted, and proteins were transferred onto a nitrocellulose membrane. The membrane was then blocked with 10% skimmed milk in TBST for 1 h and incubated overnight with primary antibodies (1:400 dilution). Secondary antibodies coupled to horseradish peroxidase were diluted 1:2000, and membranes were incubated for 1 h. The blots were documented using the ChemiDoc MP (Bio‐Rad), and densitometric analysis was performed using ImageJ (U.S. National Institutes of Health). Statistical analyses were carried out using GraphPad Prism 8.0.

hPTP1B1–400 [3] = molecular target: T2, hPTP1B1–400; assay: PTP1B activity assay, long form hPTP1B1–400 (p‐NPP); assay type: biochemical; set-up: hPTP1B1–400 (the long form with an intrinsically disordered C‐terminal regulatory domain); conditions: for IC50: ± S.D, p‐NPP substrate, 15 min at 37 °C, triplicate
Experimental: The inhibitory activity of PTP1B was assessed using two enzyme variants: hPTP1B1–285 (the short form with an N‐terminal catalytic domain) and hPTP1B1–400 (the long form with an intrinsically disordered C‐terminal regulatory domain). […] According to Coronel‐Tovar et al., the disordered region of the C‐terminal domain plays a crucial role in modulating PTP1B enzymatic activity.^[ [30] ^] […] Different concentrations of the compounds were evaluated to determine their IC50 values (Table 1 ).
Recombinant human protein tyrosine phosphatase 1B, consisting of 400 and 285 amino acid residues, was used.^[ [35] ^] […] Aliquots of 0–10 µL of the test compounds (triplicate) were taken and incubated for 15 min at 37 °C with 85 µL of Tris buffer solution (50 mM, pH 6.8) containing PTP1B enzyme and 5 µL of p‐nitrophenyl phosphate substrate (p‐NPP, 10 mM). Absorbance was then measured at a wavelength of 405 nm. The inhibitory activity was determined according to Equation (1). (1) % PTP1B=(A405b/A405c)×100 where % PTP1B: Is the percentage of inhibition. A 405c: Is the corrected absorbance of the blank (A 405initial–A 405final). A 405b: Is the corrected absorbance of the compounds (A 405control–A 405compound).

[4] = ± S.D, assessed up to 100 μM, read-out: TCPTP IC50

Row | SMILES | IC50 (TCPTP; [4]) | IC50 (hPTP1B1–400 [3]) | IC50 (TCPTP) | TCPTP inhibition (in words) (TCPTP) | type of inhibition against hPTP1B1−322 (hPTP1B1−322) | IC50 (hPTP1B1−322) | Ki (hPTP1B1−322) | Inhibition type (hPTP1B1–400 [1]) | K m (hPTP1B1–400 [1]) | V max (hPTP1B1–400 [1]) | AKT phosphorylation (pAKT) levels [2] | PTP1B levels [2] | further results
1 | CC1(C)[C@@H](O)CC[C@]2(C)[C@H]3C(=O)C=C4[C@H]5C[C@@](C)(C(=O)O)CC[C@]5(C)CC[C@@]4(C)[C@]3(C)CC[C@@H]12 [18α‐GA, 18α‐glycyrrhetinic acid] | – | – | > 100 µM | do not inhibit TCPTP | competitive inhibition | 10.4 µM | 3.17 µM | uncompetitive inhibition | 2.11 ± 0.68 mM | 1.94 ± 0.54 mM/min | – | – | –
2 | CN(C)C(=N)N=C(N)N [metformin] | – | – | – | – | – | – | – | – | – | – | significant increase | neither metformin, ursolic acid, nor GA derivatives significantly reduced PTP1B levels | –
3 | C[C@H]1[C@H](C)CC[C@]2(C(=O)O)CC[C@]3(C)C(=CC[C@@H]4[C@@]5(C)CC[C@H](O)C(C)(C)[C@@H]5CC[C@]43C)[C@H]12 [UA, ursolic acid] | – | – | > 100 µM | – | – | – | – | – | – | – | did not demonstrate a notable change | neither metformin, ursolic acid, nor GA derivatives significantly reduced PTP1B levels | –
4 | CC1(C)[C@@H](O)CC[C@]2(C)[C@H]3C(=O)C=C4[C@@H]5C[C@@](C)(C(=O)O)CC[C@]5(C)CC[C@@]4(C)[C@]3(C)CC[C@@H]12 [18β‐GA, 18β‐glycyrrhetinic acid] | – | – | > 100 µM | do not inhibit TCPTP | competitive inhibition | 26.1 µM | 16.2 µM | uncompetitive inhibition | 2.83 ± 0.96 mM | 3.13 ± 0.94 mM/min | – | – | –

Now from value to compound, other results behind:

Row | IC50 (TCPTP; [4]) | IC50 (hPTP1B1–400 [3]) | SMILES | IC50 (TCPTP) | TCPTP inhibition (in words) (TCPTP) | type of inhibition against hPTP1B1−322 (hPTP1B1−322) | IC50 (hPTP1B1−322) | Ki (hPTP1B1−322) | Inhibition type (hPTP1B1–400 [1]) | K m (hPTP1B1–400 [1]) | V max (hPTP1B1–400 [1]) | AKT phosphorylation (pAKT) levels [2] | PTP1B levels [2] | further results
5 | > 100 µM | 2.54 ± 0.05 µM | Cc1ccc(-n2ncc3c2C(C)(C)C2CCC4(C)C(CC=C5C6CC(C)(C(=O)O)CCC6(C)CCC54C)C2(C)C3)cc1 (centres unmarked) [Compound 5b] | – | – | – | – | – | – | – | – | – | – | –
6 | > 100 µM | 4.44 ± 0.22 µM | CC1(C(=O)O)CCC2(C)CCC3(C)C(=CCC4C5(C)Cc6c([nH]c7ccc(C(F)(F)F)cc67)C(C)(C)C5CCC43C)C2C1 (centres unmarked) [Compound 3a] | – | – | – | – | – | – | – | – | – | – | potency relative to 18α‐GA (hPTP1B1–400 [3]; hPTP1B1–400): half as potent
